The text below walks through data of ChEMBL document CHEMBL3877246, “Antileishmanial effect of new indeno-1,5-naphthyridines, selective inhibitors of Leishmania infantum type IB DNA topoisomerase” (Eur J Med Chem, 2016).

In series [1] the test system is Leishmania infantum. The series can be described thus: Inhibition of Leishmania infantum recombinant topoisomerase 1B expressed in topoisomerase 1B- deficient Saccharomyces cerevisiae EKY3 assessed as decrease in relaxation of negatively supercoiled pSK DNA at 100 uM preincubated for 5 mins followed by supercoiled pSK DNA addition measured after 5 mins by aggarose gel electrophoresis.

Series [2] can be described thus: Selectivity index, ratio of CC50 for BALB/c mouse splenocytes to IC50 for Leishmania infantum amastigotes harboring iRFP gene infected BALB/c mouse splenocytes. It is filed as functional.
Series [3] is described as follows: Inhibition of Leishmania infantum recombinant topoisomerase 1B expressed in topoisomerase 1B- deficient Saccharomyces cerevisiae EKY3 assessed as decrease in relaxation of negatively supercoiled pSK DNA preincubated for 15 mins followed by supercoiled pSK DNA addition measured after 5 mins by aggarose gel electrophoresis.
Series [4] in a line: Inhibition of human recombinant topoisomerase 1B expressed in topoisomerase 1B- deficient Saccharomyces cerevisiae EKY3 assessed as decrease in relaxation of negatively supercoiled pSK DNA preincubated for 15 mins followed by supercoiled pSK DNA addition measured after 5 mins by aggarose gel electrophoresis.
The species named for series [5] is Homo sapiens. The series can be described thus: Inhibition of human recombinant topoisomerase 1B expressed in topoisomerase 1B- deficient Saccharomyces cerevisiae EKY3 assessed as decrease in relaxation of negatively supercoiled pSK DNA at 100 uM preincubated for 1 min followed by supercoiled pSK DNA addition measured after 5 mins by aggarose gel electrophoresis.

Series [6] relates to Leishmania infantum. Put plainly: Antileishmanial activity against Leishmania infantum BCN150 promastigotes harboring iRFP gene by infrared imaging method. The class given is functional.
Series [7] has as its system Leishmania infantum. Put plainly: Antileishmanial activity against Leishmania infantum amastigotes harboring iRFP gene infected BALB/c mouse splenocytes after 48 hrs by infrared imaging method. It is filed as functional.
The species entered for series [8] is Homo sapiens. Put plainly: Inhibition of human recombinant topoisomerase 1B expressed in topoisomerase 1B- deficient Saccharomyces cerevisiae EKY3 assessed as decrease in relaxation of negatively supercoiled pSK DNA at 100 uM preincubated for 15 mins followed by supercoiled pSK DNA addition measured after 5 mins by aggarose gel electrophoresis.
For series [9], the system named is Leishmania infantum. The series can be described thus: Inhibition of Leishmania infantum recombinant topoisomerase 1B expressed in topoisomerase 1B- deficient Saccharomyces cerevisiae EKY3 assessed as decrease in relaxation of negatively supercoiled pSK DNA at 100 uM preincubated for 15 mins followed by supercoiled pSK DNA addition measured after 5 mins by aggarose gel electrophoresis.

Series [10] relates to Leishmania infantum. Put plainly: Inhibition of Leishmania infantum recombinant topoisomerase 1B expressed in topoisomerase 1B- deficient Saccharomyces cerevisiae EKY3 assessed as decrease in relaxation of negatively supercoiled pSK DNA at 100 uM preincubated for 1 min followed by supercoiled pSK DNA addition measured after 5 mins by aggarose gel electrophoresis.
A short description of series [11]: Cytotoxicity against BALB/c mouse splenocytes assessed as cell viability after 48 hrs by alamar blue assay. It is filed as toxicity, Splenocyte. In general terms: Resazurin is reduced to fluorescent resorufin, in cell work by metabolically active cells.
The species named for series [12] is Homo sapiens. The series can be described thus: Inhibition of human recombinant topoisomerase 1B expressed in topoisomerase 1B- deficient Saccharomyces cerevisiae EKY3 assessed as decrease in relaxation of negatively supercoiled pSK DNA at 100 uM preincubated for 5 mins followed by supercoiled pSK DNA addition measured after 5 mins by aggarose gel electrophoresis.

Molecules are shown by their SMILES. Activity calls are given as the source filed them. No cut-off for these calls is given here.

One may read the IC50 as the concentration that gives 50% inhibition. A word on the CC50: it is the concentration giving 50% cytotoxicity. In the case of `c1ccc2c(c1)Cc1c(-c3ccc4ccccc4c3)nc3cccnc3c1-2`, the inhibition entry in series [1], in series [5], in series [8], in [9], in series [10] and in [12] was “Active” in each case. Besides, the “Ratio CC50/IC50” value in series [2] was found to be 6.4. The half-inhibitory concentration (IC50) in series [3] came to 28.1 µM; in [4], 83.4 µM; in series [6], 34.6 µM; in series [7], 11.9 µM. Further, the half-maximal cytotoxic concentration (CC50) at 48 h in [11] was determined as 75.8 µM.

As for `FC(F)(F)c1ccc([C@H]2Nc3cccnc3[C@H]3c4ccccc4C[C@H]32)cc1` (relative stereo), the inhibition result in [1], in series [8], in [9] and in series [12] was “Active” in each case. Further, the IC50 stood at 60.6 µM in series [3], 22.4 µM in series [4] and 6.1 µM in [6]. Moreover, the half-maximal cytotoxic concentration (CC50) at 48 h in series [11] is 4.6 µM.

Regarding `O=[N+]([O-])c1ccc(-c2nc3cccnc3c3c2Cc2ccccc2-3)cc1`, the inhibition entry in [1], in series [5], in [8], in series [9], in [10] and in [12] was “Active” each time. Further, the “Ratio CC50/IC50” value in [2] is 1.29. The IC50 was 42.3 µM in [3], 31.6 µM in [4], over 100 µM in [6] and 68.3 µM in series [7]. In addition, the CC50 at 48 h in series [11] was 88.1 µM.

For `FC(F)(F)c1ccc(-c2nc3cccnc3c3c2Cc2ccccc2-3)cc1`, the inhibition entry in [1], in series [5], in [8], in series [9], in [10] and in series [12] was “Active” in each case. In [2], the “Ratio CC50/IC50” value came out at 37.6. Moreover, the IC50 in [3] is 23.6 µM; in series [4], 27.4 µM; in series [6], 84.7 µM; in [7], 3.35 µM. Further, the CC50 at 48 h in [11] stood at 126 µM.
